The results in this text go back to patent US20210379543A1, “PROCESS FOR PRODUCING A NANO-TAN IIA MICROEMULSION SYSTEM” (Wakamono Corporation, priority 2021, published 2021).

The nature of the data set: Water solubility / water-dispersability, including FIG. 1 comparison. The format is physicochemical. The settings on record: dispersed in water, bottle A vs bottle B.

Turning to `Cc1coc2c1C(=O)C(=O)c1c-2ccc2c1CCCC2(C)C` [known 90% Tan IIA, Tanshinone IIA], the “Water-dispersability (FIG. 1)” value was “insoluble in water”.
